Source: ChEMBL document CHEMBL1150902, “Certain norditerpenoid alkaloids and their cardiovascular action” (1998)
The source made the active and inactive calls. The rule behind the calls is not given here.

Columns and labels:
Rattus norvegicus [1] = experiment: Cardiovascular activity in anesthetized Sprague-Dawley rat assessed as reduction in heart rate at 200 ug/kg, iv; assay type: functional; design: scale not given: the % may be the effect or the level left
Rattus norvegicus [2] = experiment: Cardiovascular activity in anesthetized Sprague-Dawley rat assessed as reduction in blood pressure at 400 ug/kg, iv; assay type: functional; design: scale not given: the % may be the effect or the level left
Rattus norvegicus [3] = experiment: Cardiovascular activity in anesthetized Sprague-Dawley rat assessed as reduction in heart rat at 400 ug/kg, iv; assay type: functional; design: scale not given: the % may be the effect or the level left
Rattus norvegicus [4] = experiment: Cardiovascular activity in anesthetized Sprague-Dawley rat assessed as reduction in blood pressure at 200 ug/kg, iv; assay type: functional; design: scale not given: the % may be the effect or the level left
Rattus norvegicus [5] = experiment: Cardiovascular activity in anesthetized Sprague-Dawley rat assessed as induction of cardiac arrhythmia at 200 ug/kg, iv; assay type: functional, organism-based; details: Heart
Rattus norvegicus [6] = experiment: Cardiovascular activity in anesthetized Sprague-Dawley rat assessed as induction of cardiac arrhythmia at 400 ug/kg, iv; assay type: functional, organism-based; details: Heart
Canis familiaris [7] = experiment: Cardiovascular activity in dog assessed as decrease in cardial vagal efferent nerve activity at 150 ug/kg, iv; assay type: functional, Canis lupus familiaris; design: scale not given: the % may be the effect or the level left
Canis familiaris [8] = experiment: Cardiovascular activity in dog assessed as increase in cardial vagal afferent nerve activity at 150 ug/kg, iv; assay type: functional, Canis lupus familiaris

SMILES | Activity (Rattus norvegicus [1]) [%] | Activity (Rattus norvegicus [2]) [%] | Activity (Rattus norvegicus [3]) [%] | Activity (Rattus norvegicus [4]) [%] | Activity (Rattus norvegicus [5]) | Activity (Rattus norvegicus [6]) | Activity (Canis familiaris [7]) [%] | Activity (Canis familiaris [8]) [%]
CCN1C[C@]2(OC(=O)c3ccccc3N)CC[C@H](OC)[C@]34C1[C@H](C[C@H]23)[C@@]1(OC(C)=O)C[C@H](OC)[C@H]2C[C@@H]4[C@]1(OC(C)=O)[C@H]2OC | 0 | 0 | 0 | 0 |  |  |  | 
CCN1C[C@@]2(COC)[C@H]3[C@@H](OC)[C@H]4C1[C@]3([C@@H](OC)C[C@H]2OC(C)=O)[C@@H]1C[C@H]2[C@H](OC(=O)c3ccc(OC)c(OC)c3)[C@@H]1[C@]4(OC(C)=O)C[C@@H]2OC |  |  |  |  | Active | Active |  | 
CCN1C[C@]2(COC)CC[C@H](OC)[C@]34C1[C@H](C[C@H]23)[C@H]1C[C@@H](OC)[C@@]2(O)C[C@@H]4[C@@H]1[C@H]2OC(=O)c1ccccc1 | 0 | 27.6 | 3 | 22.6 |  |  |  | 
CCN1C[C@]2(COC)CC[C@H](OC)[C@]34C1[C@H]([C@H](OC)[C@H]23)[C@@]1(OC(=O)c2cccc3cc5ccccc5cc23)C=C[C@@]2(O)C[C@@H]4[C@@H]1[C@H]2OC(=O)c1ccccc1 | 3.7 | 9.2 | 3.8 | 0 |  |  |  | 
CC/C=C\C/C=C\C/C=C\CCCCCCCCC(=O)O[C@]12C[C@H](OC)[C@H]3C[C@H]([C@@H]1[C@H]3OC(=O)c1ccc(OC)c(OC)c1)[C@@]13C4[C@@H]2[C@H](OC)[C@@H]1[C@](COC)(CN4CC)[C@H](O)C[C@@H]3OC | 8.5 | 53.4 | 24.5 | 30.3 |  |  |  | 
CCN1C[C@]2(COC)CC[C@H](OC)[C@@]34C1[C@@H](C1=C[C@H](OC)[C@@]5(O)C[C@@H]3[C@@H]1[C@H]5OC(=O)c1ccccc1)[C@H](OC)[C@H]24 [PYRODELPHININE] | 7.7 | 14.3 | 8.1 | 23.1 |  |  |  | 
CCN1C[C@]2(COC)CC[C@H](OC)[C@]34C1[C@H]([C@H](OC)[C@H]23)[C@@]1(OC(=O)/C=C/c2ccc(O)c(OC)c2)C[C@H](OC)[C@@]2(O)C[C@@H]4[C@@H]1[C@H]2OC(=O)c1ccccc1 | 8.3 | 10.6 | 8.3 | 8.8 |  |  |  | 
CC[N+]1([O-])C[C@]2(COC)CC[C@H](OC)[C@]34C1[C@H]([C@H](OC)[C@H]23)[C@@]1(OC(C)=O)C[C@H](OC)[C@@]2(OC(C)=O)C[C@@H]4[C@@H]1[C@H]2OC(=O)c1ccccc1 (stereo not given in full) | 3.8 | 13.4 | 8.7 | 0 |  |  |  | 
CCCCCCCCCCCCCCCCCC(=O)O[C@]12C[C@H](OC)[C@H]3C[C@H]([C@@H]1[C@H]3OC(=O)c1ccc(OC)c(OC)c1)[C@@]13C4[C@@H]2[C@H](OC)[C@@H]1[C@](COC)(CN4CC)[C@H](O)C[C@@H]3OC | 0 | 53.4 | 24.5 | 15.3 |  |  |  | 
CCN1C[C@]2(OC(=O)c3ccccc3NC(C)=O)CC[C@H](OC)[C@]34C1[C@H](C[C@H]23)[C@@]12C[C@H](OC)[C@H]3C[C@@H]4[C@]1(OCO2)[C@H]3OC | 5.7 | 16.4 | 5.6 | 26 |  |  |  | 
CCN1C[C@]2(OC(=O)c3ccccc3N)CC[C@H](OC)[C@]34C1[C@H](C[C@H]23)[C@@]1(O)C[C@H](OC)[C@H]2C[C@@H]4[C@]1(O)[C@H]2OC | 12.7 | 57.6 | 14.8 | 27.2 |  |  | 23.5 | 40
CCN1C[C@]2(COC)CC[C@H](OC)[C@]34C1[C@H]([C@H](OC)[C@H]23)[C@@]1(OC(=O)c2cccc3cc5ccccc5cc23)C[C@H](OC)[C@@]2(O)C[C@@H]4[C@@H]1[C@H]2OC(=O)c1ccccc1 | 4.2 | 0 | 2 | 20.8 |  |  |  | 
CCN1C[C@@]2(COC)[C@H]3[C@@H](OC)[C@H]4C1[C@]3([C@@H](OC)C[C@H]2OC(C)=O)[C@@H]1C[C@]2(OC(C)=O)[C@@H](OC)C[C@@]4(OC(C)=O)[C@H]1[C@H]2OC(=O)c1ccc(OC)c(OC)c1 | 5.4 | 0 | 0 | 13.2 |  |  |  | 
CC[N+]1([O-])C[C@]2(C)CC[C@H](OC)[C@]34C1[C@H]([C@@H](O)[C@H]23)[C@@]1(O)CC[C@H]2C[C@@H]4[C@@H]1C(=O)O2 (stereo not given in full) | 18.8 | 7.6 | 8.9 | 28.1 |  |  |  | 
CCN1C[C@]2(COC)CC[C@H](OC)[C@]34C1[C@H]([C@H](OC)[C@H]23)[C@@]1(OC(=O)c2ccc(N)cc2)C[C@H](OC)[C@@]2(O)C[C@@H]4[C@@H]1[C@H]2OC(=O)c1ccccc1 | 8.4 | 38 | 14.8 | 42.4 |  |  |  | 
